This note sets out measurements from patent US8076487B2, “Pyridone derivative and herbicide” (Kumiai Chemical Industry Co., Ltd., priority 2006, dated 2011).

Type in all cases: in vivo
For experiment [1], the system named is heartshape false pickerelweed (Monochoria vaginalis (Burm.f.) C.Presl). Nature of the experiment: Test Example 1: herbicidal effect by soil application to paddy field. As to conditions: paddy field soil application; active ingredient 1,000 g per 1 hectare; wettable powder added dropwise to water surface the day after sowing; examined on the 21st day after application. An outline of the steps: (§1)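 Under greenhouse conditions, seeds sown on puddled paddy soil in 100 cm2 pots under 3 cm of standing water received the test compound; injury was assessed with a standard scoring scheme three weeks (day 21) after treatment.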

Experiment [2] deals with early watergrass (Echinochloa oryzicola Vasing). Described as above. Conditions: paddy field soil application; active ingredient 1,000 g per 1 hectare; wettable powder added dropwise to water surface the day after sowing; examined on the 21st day after application. An outline of the steps:
as §1

Experiment [3] relates to Japanese bulrush (Scirpus juncoides Roxb.). The description is as above. As to conditions: paddy field soil application; active ingredient 1,000 g per 1 hectare; wettable powder added dropwise to water surface the day after sowing; examined on the 21st day after application. The essentials:
as §1

In experiment [4] the test system is green foxtail (Setaria viridis (L.) P. Beauv.). Nature of the experiment: Test Example 2: herbicidal effect by soil application to upland field. As to conditions: soil surface spray, upland field soil, 1,000 g active ingredient per hectare, 21st day after application. An outline of the steps: (§2)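 In this soil-application test, sown and soil-covered pots are sprayed uniformly with the formulation diluted in water, giving 1,000 g of active ingredient per ha in a volume of 1,000 L per ha. Plants then grow in a greenhouse for 21 days before herbicidal scoring by a standard scale.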

Experiment [5] has as its system slender amaranth (Amaranthus viridis L.). The description is as above. Conditions: soil surface spray, upland field soil, 1,000 g active ingredient per hectare, 21st day after application. An outline of the steps:
as §2

For experiment [6], the system named is velvetleaf (Abutilon theophrasti medicus). The description is as above. Conditions: soil surface spray, upland field soil, 1,000 g active ingredient per hectare, 21st day after application. An outline of the steps: as §2
The test system of experiment [7] is barnyardgrass (Echinochloa crus-galli (L.) P. Beauv. var. crus-galli). The experiment is described as above. Conditions: soil surface spray, upland field soil, 1,000 g active ingredient per hectare, 21st day after application. The essentials:
as §2

Experiment [8] deals with green foxtail (Setaria viridis (L.) P. Beauv.). Nature of the experiment: Test Example 3: herbicidal effect by application to upland field (foliage treatment). As to conditions: 14th day after application; for herbicidal effect, Green Foxtail: foliage treatment, 1,000 g active ingredient per 1 hectare, greenhouse; for herbicidal effect (index), Green Foxtail: foliage treatment, plants grown two weeks, 1,000 g active ingredient per hectare. An outline of the steps:
(§3)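 Read-out is a visual herbicidal-effect grade on a standard scale, taken on the 14th day after a single foliar spray. The spray was wettable powder diluted in water, 1,000 g active ingredient/ha at 1,000 L/ha, applied to greenhouse plants two weeks after sowing.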

Experiment [9] relates to slender amaranth (Amaranthus viridis L.). The description is as above. Conditions: 14th day after application; for herbicidal effect, Slender Amaranth: foliage treatment, 1,000 g active ingredient per 1 hectare, greenhouse; for herbicidal effect (index), Slender Amaranth: foliage treatment, plants grown two weeks, 1,000 g active ingredient per hectare. An outline of the steps: as §3

For experiment [10], the system named is velvetleaf (Abutilon theophrasti medicus). The description is as above. As to conditions: 14th day after application; for herbicidal effect, Velvetleaf: foliage treatment, 1,000 g active ingredient per 1 hectare, greenhouse; for herbicidal effect (index), Velvetleaf: foliage treatment, plants grown two weeks, 1,000 g active ingredient per hectare. An outline of the steps: as §3

In experiment [11] the test system is barnyardgrass (Echinochloa crus-galli (L.) P. Beauv. var. crus-galli). The description is as above. As to conditions: 14th day after application; for herbicidal effect, Barnyardgrass: foliage treatment, 1,000 g active ingredient per 1 hectare, greenhouse; for herbicidal effect (index), Barnyardgrass: foliage treatment, plants grown two weeks, 1,000 g active ingredient per hectare. The essentials:
as §3

The structures appear in SMILES notation.

As to `COCC(C)n1c(C(F)(F)F)ccc(C(=O)C2=C(O)C3CCC(C3)C2=O)c1=O` (centres unmarked) [III-21], the “herbicidal effect, Monochoria vaginalis (Burm. f.) C. Presl” value (“herbicidal effect, Monochoria vaginalis” for short) in experiment [1] is 5 (90% or more of herbicidal effect and crop phytotoxicity). Moreover, in experiment [2], the “herbicidal effect, Echinochloa oryzicola Vasing” value was 5 (90% or more of herbicidal effect and crop phytotoxicity). Besides, the “herbicidal effect, Scirpus juncoides Roxb.” value in experiment [3] is 5 (90% or more of herbicidal effect and crop phytotoxicity). Moreover, the “herbicidal effect (index), Green Foxtail” value in experiment [4] was 5 (90% or more of herbicidal effect and crop phytotoxicity). In experiment [5], the “herbicidal effect (index), Slender Amaranth” value was 5 (90% or more of herbicidal effect and crop phytotoxicity). Also, in experiment [6], the “herbicidal effect (index), Velvetleaf” value is 5 (90% or more of herbicidal effect and crop phytotoxicity). For the same compound, in [7], the “herbicidal effect (index), Barnyardgrass” value is 5 (90% or more of herbicidal effect and crop phytotoxicity). Also, the “herbicidal effect, Green Foxtail” value in [8] was 5 (90% or more of herbicidal effect and crop phytotoxicity). Besides, the “herbicidal effect, Slender Amaranth” value in experiment [9] was 5 (90% or more of herbicidal effect and crop phytotoxicity). Further, the “herbicidal effect, Velvetleaf” value in experiment [10] was 5 (90% or more of herbicidal effect and crop phytotoxicity). Besides, the “herbicidal effect, Barnyardgrass” value in experiment [11] is 5 (90% or more of herbicidal effect and crop phytotoxicity).

As to `CCCS(=O)(=O)Oc1c(C(=O)c2ccc(C(F)(F)F)n(CC(C)OC)c2=O)cnn1C` (centres unmarked) [IV-39], the “herbicidal effect, Monochoria vaginalis” value in experiment [1] was 5 (90% or more of herbicidal effect and crop phytotoxicity). In addition, in experiment [2], the “herbicidal effect, Echinochloa oryzicola Vasing” value is 5 (90% or more of herbicidal effect and crop phytotoxicity). In [3], the “herbicidal effect, Scirpus juncoides Roxb.” value was 5 (90% or more of herbicidal effect and crop phytotoxicity). For the same compound, the “herbicidal effect (index), Green Foxtail” value in experiment [4] is 3 (50 to less than 70% of herbicidal effect and crop phytotoxicity). Also, the “herbicidal effect (index), Slender Amaranth” value in experiment [5] was 4 (70 to less than 90% of herbicidal effect and crop phytotoxicity). The “herbicidal effect (index), Velvetleaf” value in experiment [6] was 4 (70 to less than 90% of herbicidal effect and crop phytotoxicity). Moreover, in experiment [7], the “herbicidal effect (index), Barnyardgrass” value was 5 (90% or more of herbicidal effect and crop phytotoxicity). Moreover, the “herbicidal effect, Green Foxtail” value in experiment [8] is 3 (50 to less than 70% of herbicidal effect and crop phytotoxicity). The “herbicidal effect, Slender Amaranth” value in [9] is 5 (90% or more of herbicidal effect and crop phytotoxicity). In addition, the “herbicidal effect, Velvetleaf” value in experiment [10] was 5 (90% or more of herbicidal effect and crop phytotoxicity). In addition, the “herbicidal effect, Barnyardgrass” value in experiment [11] was 5 (90% or more of herbicidal effect and crop phytotoxicity).

On to `COc1ccc(-n2c(C(F)(F)F)ccc(C(=O)C3=C(O)CCCC3=O)c2=O)c(OC)c1` [I-99], for which, in experiment [1], the “herbicidal effect, Monochoria vaginalis” value is 5 (90% or more of herbicidal effect and crop phytotoxicity). Further, in [2], the “herbicidal effect, Echinochloa oryzicola Vasing” value is 5 (90% or more of herbicidal effect and crop phytotoxicity). Also, in experiment [3], the “herbicidal effect, Scirpus juncoides Roxb.” value is 5 (90% or more of herbicidal effect and crop phytotoxicity). Moreover, the “herbicidal effect (index), Green Foxtail” value in [4] was 4 (70 to less than 90% of herbicidal effect and crop phytotoxicity); in experiment [8], 4 (70 to less than 90% of herbicidal effect and crop phytotoxicity). For the same compound, the “herbicidal effect (index), Slender Amaranth” value in [5] was 5 (90% or more of herbicidal effect and crop phytotoxicity); in [9], 5 (90% or more of herbicidal effect and crop phytotoxicity). Also, the “herbicidal effect (index), Velvetleaf” value in [6] was 5 (90% or more of herbicidal effect and crop phytotoxicity); in experiment [10], 5 (90% or more of herbicidal effect and crop phytotoxicity). Moreover, the “herbicidal effect (index), Barnyardgrass” value was 5 (90% or more of herbicidal effect and crop phytotoxicity) in [7]; 5 (90% or more of herbicidal effect and crop phytotoxicity) in experiment [11].

For `O=C1CCCC(O)=C1C(=O)c1ccc(C(F)(F)F)n(-c2ccccc2Cl)c1=O` [I-73], in [1], the “herbicidal effect, Monochoria vaginalis” value was 5 (90% or more of herbicidal effect and crop phytotoxicity). In experiment [2], the “herbicidal effect, Echinochloa oryzicola Vasing” value is 5 (90% or more of herbicidal effect and crop phytotoxicity). For the same compound, the “herbicidal effect, Scirpus juncoides Roxb.” value in experiment [3] is 5 (90% or more of herbicidal effect and crop phytotoxicity). Moreover, the “herbicidal effect (index), Green Foxtail” value in experiment [4] was 5 (90% or more of herbicidal effect and crop phytotoxicity); in experiment [8] it was 4 (70 to less than 90% of herbicidal effect and crop phytotoxicity). For the same compound, the “herbicidal effect (index), Slender Amaranth” value is 5 (90% or more of herbicidal effect and crop phytotoxicity) in [5]; 5 (90% or more of herbicidal effect and crop phytotoxicity) in experiment [9]. The “herbicidal effect (index), Velvetleaf” value is 5 (90% or more of herbicidal effect and crop phytotoxicity) in experiment [6]; 5 (90% or more of herbicidal effect and crop phytotoxicity) in [10]. Further, the “herbicidal effect (index), Barnyardgrass” value was 5 (90% or more of herbicidal effect and crop phytotoxicity) in experiment [7]; 5 (90% or more of herbicidal effect and crop phytotoxicity) in experiment [11].

On to `CCCn1c(C(F)(F)F)ccc(C(=O)c2cnn(C)c2OC(=O)c2ccccc2)c1=O` [IV-4], for which, in [1], the “herbicidal effect, Monochoria vaginalis” value was 5 (90% or more of herbicidal effect and crop phytotoxicity). In addition, the “herbicidal effect, Echinochloa oryzicola Vasing” value in [2] was 5 (90% or more of herbicidal effect and crop phytotoxicity). The “herbicidal effect, Scirpus juncoides Roxb.” value in experiment [3] was 5 (90% or more of herbicidal effect and crop phytotoxicity). Besides, the “herbicidal effect (index), Green Foxtail” value in experiment [4] was 5 (90% or more of herbicidal effect and crop phytotoxicity). For the same compound, the “herbicidal effect (index), Slender Amaranth” value in [5] is 5 (90% or more of herbicidal effect and crop phytotoxicity). Besides, the “herbicidal effect (index), Velvetleaf” value in experiment [6] is 5 (90% or more of herbicidal effect and crop phytotoxicity). Besides, the “herbicidal effect (index), Barnyardgrass” value in [7] is 5 (90% or more of herbicidal effect and crop phytotoxicity). Moreover, the “herbicidal effect, Green Foxtail” value in [8] was 4 (70 to less than 90% of herbicidal effect and crop phytotoxicity). Moreover, the “herbicidal effect, Slender Amaranth” value in [9] was 5 (90% or more of herbicidal effect and crop phytotoxicity). Besides, in experiment [10], the “herbicidal effect, Velvetleaf” value is 5 (90% or more of herbicidal effect and crop phytotoxicity). For the same compound, the “herbicidal effect, Barnyardgrass” value in experiment [11] was 5 (90% or more of herbicidal effect and crop phytotoxicity).

With `Cn1ncc(C(=O)c2ccc(C(F)(F)F)n(CC3CCOC3)c2=O)c1O` (centres unmarked) [IV-143], the “herbicidal effect, Monochoria vaginalis” value in experiment [1] was 5 (90% or more of herbicidal effect and crop phytotoxicity). For the same compound, the “herbicidal effect, Echinochloa oryzicola Vasing” value in experiment [2] is 5 (90% or more of herbicidal effect and crop phytotoxicity). For the same compound, the “herbicidal effect, Scirpus juncoides Roxb.” value in experiment [3] is 5 (90% or more of herbicidal effect and crop phytotoxicity). Besides, in experiment [4], the “herbicidal effect (index), Green Foxtail” value was 5 (90% or more of herbicidal effect and crop phytotoxicity). Besides, the “herbicidal effect (index), Slender Amaranth” value in experiment [5] was 5 (90% or more of herbicidal effect and crop phytotoxicity). In addition, the “herbicidal effect (index), Velvetleaf” value in experiment [6] is 5 (90% or more of herbicidal effect and crop phytotoxicity). In addition, the “herbicidal effect (index), Barnyardgrass” value in experiment [7] is 5 (90% or more of herbicidal effect and crop phytotoxicity). Also, the “herbicidal effect, Green Foxtail” value in experiment [8] is 5 (90% or more of herbicidal effect and crop phytotoxicity). Moreover, in experiment [9], the “herbicidal effect, Slender Amaranth” value is 5 (90% or more of herbicidal effect and crop phytotoxicity). Besides, the “herbicidal effect, Velvetleaf” value in [10] is 5 (90% or more of herbicidal effect and crop phytotoxicity). In addition, the “herbicidal effect, Barnyardgrass” value in experiment [11] was 5 (90% or more of herbicidal effect and crop phytotoxicity).

In the case of `N#Cc1ccc(C(=O)C2=C(O)CCCC2=O)c(=O)n1-c1ccccc1` [I-243], in experiment [1], the “herbicidal effect, Monochoria vaginalis” value was 5 (90% or more of herbicidal effect and crop phytotoxicity). Further, the “herbicidal effect, Echinochloa oryzicola Vasing” value in experiment [2] is 5 (90% or more of herbicidal effect and crop phytotoxicity). Besides, in experiment [3], the “herbicidal effect, Scirpus juncoides Roxb.” value is 5 (90% or more of herbicidal effect and crop phytotoxicity). For the same compound, the “herbicidal effect (index), Green Foxtail” value in [4] was 5 (90% or more of herbicidal effect and crop phytotoxicity). In [5], the “herbicidal effect (index), Slender Amaranth” value is 5 (90% or more of herbicidal effect and crop phytotoxicity). For the same compound, the “herbicidal effect (index), Velvetleaf” value in experiment [6] is 5 (90% or more of herbicidal effect and crop phytotoxicity). For the same compound, the “herbicidal effect (index), Barnyardgrass” value in [7] was 5 (90% or more of herbicidal effect and crop phytotoxicity). In experiment [8], the “herbicidal effect, Green Foxtail” value is 5 (90% or more of herbicidal effect and crop phytotoxicity). The “herbicidal effect, Slender Amaranth” value in experiment [9] was 5 (90% or more of herbicidal effect and crop phytotoxicity). Also, the “herbicidal effect, Velvetleaf” value in experiment [10] is 5 (90% or more of herbicidal effect and crop phytotoxicity). In addition, the “herbicidal effect, Barnyardgrass” value in experiment [11] was 5 (90% or more of herbicidal effect and crop phytotoxicity).
